US8669247B2, “2,5-disubstituted arylsulfonamide CCR3 antagonists” (Axikin Pharmaceuticals, Inc., priority 2009, dated 2014)

Assays:
[1] = target: T1, CCR3 receptor (UniProt P51677); experiment: CCR3 Receptor Binding Assay ([125I]-labeled human eotaxin/CCL11 displacement on cells); details: Free (free form of the compound)
T1 sequence (P51677 1-355): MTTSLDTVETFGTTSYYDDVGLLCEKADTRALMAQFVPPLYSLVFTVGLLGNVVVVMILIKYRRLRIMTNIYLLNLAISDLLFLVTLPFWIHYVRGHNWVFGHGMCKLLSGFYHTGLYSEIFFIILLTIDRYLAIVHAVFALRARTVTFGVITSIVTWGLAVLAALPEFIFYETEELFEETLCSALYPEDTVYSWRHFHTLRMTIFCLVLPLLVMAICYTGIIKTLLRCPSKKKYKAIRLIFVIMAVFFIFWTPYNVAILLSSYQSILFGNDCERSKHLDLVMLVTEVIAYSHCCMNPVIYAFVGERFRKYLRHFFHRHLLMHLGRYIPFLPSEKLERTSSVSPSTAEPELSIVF
Protocol: Cells were washed once with PBS and resuspended in a binding buffer (25 mM HEPES pH 7.6, 5 mM MgCl2, 1 mM CaCl2, 0.5% BSA, 0.1% NaN3), […] of cell suspension (2×10^5 cells/well) and 0.1 nM [^125I]-labeled human eotaxin/CCL11 (2000 Ci/mmol specific activity) were mixed in a 96-well U-bottom polypropylene plate, and incubated for 60 min at room temperature for the binding reaction. The cell suspension was then transferred to a filtration plate (#MAFB, Millipore), and washed 3 times with the binding buffer containing 0.5 M NaCl, scintillant added, and the radioactivity was counted on a TopCount (Packard). For the determination of non-specific binding, the cell suspension and [^125I]-labeled human eotaxin/CCL11 were incubated in the presence of 500 nM of unlabeled human eotaxin/CCL11. See, lino et al., “Molecular cloning and functional characterization of cynomolgus monkey (Macaca fascicularis) CC chemokine receptor, CCR3,” Cytokine 2002, 19, 276-286.

Ki [1] | melting point | SMILES
> 5 nM | 124 to 127 °C | Cc1ccc(C)c(Oc2ccc([N+](=O)[O-])cc2S(=O)(=O)N2CCOCC2)c1 [Compound 113, 4-(2-(2,5-Dimethylphenoxy)-5-nitrophenylsulfonyl)morpholine]
100 to 500 nM | 142 to 145 °C | Cc1ccc(C)c(Sc2ccc([N+](=O)[O-])cc2S(=O)(=O)N2CCNCC2)c1 [Compound 122, 1-(2-(2,5-Dimethylphenylthio)-5-nitrophenylsulfonyl)piperazine]
> 5 nM | 141 to 143 °C | Cc1ccc(C)c(Sc2ccc([N+](=O)[O-])cc2S(=O)(=O)N2CCOCC2)c1 [Compound 112, 4-(2-(2,5-Dimethylphenylthio)-5-nitrophenylsulfonyl)morpholine]
> 5 nM | 189 to 191 °C | O=[N+]([O-])c1ccc(Sc2cc(Cl)ccc2Cl)c(S(=O)(=O)N2CCSCC2)c1 [Compound 114, 4-(2-(2,5-Dichlorophenylthio)-5-nitrophenylsulfonyl)thiomorpholine]
> 5 nM | 182 to 186 °C | O=[N+]([O-])c1ccc(Sc2cc(Cl)ccc2Cl)c(S(=O)(=O)N2CCOCC2)c1 [Compound 110, 4-(2-(2,5-Dichlorophenylthio)-5-nitrophenylsulfonyl)morpholine]
> 5 nM | 168 to 170 °C | O=[N+]([O-])c1ccc(Oc2cc(Cl)ccc2Cl)c(S(=O)(=O)N2CCOCC2)c1 [Compound 111, 4-(2-(2,5-Dichlorophenoxy)-5-nitrophenylsulfonyl)morpholine]
> 5 nM | 130 to 137 °C | Cc1ccc(C)c(Sc2ccc([N+](=O)[O-])cc2S(=O)(=O)N2CCSCC2)c1 [Compound 116, 4-(2-(2,5-Dimethylphenylthio)-5-nitrophenylsulfonyl)thiomorpholine]
> 5 nM | 165 to 168 °C | N#Cc1ccc(Oc2cc(F)ccc2F)c(S(=O)(=O)N2CCOCC2)c1 [Compound 58, 4-(2,5-Difluorophenoxy)-3-(morpholinosulfonyl)benzonitrile]
10 to 25 nM | 161 to 163 °C | CC1CN(S(=O)(=O)c2cc([N+](=O)[O-])ccc2Oc2cc(Cl)ccc2Cl)CC(C)N1 (stereo not shown) [Compound 104, 1-(2-(2,5-Dichlorophenoxy)-5-nitrophenylsulfonyl)-3,5-dimethylpiperazine]
> 5 nM | 191 to 194 °C | O=[N+]([O-])c1ccc(Oc2cc(Cl)ccc2Cl)c(S(=O)(=O)N2CCSCC2)c1 [Compound 115, 4-(2-(2,5-Dichlorophenoxy)-5-nitrophenylsulfonyl)thiomorpholine]
> 5 nM | 144 to 147 °C | Cc1ccc(C)c(Oc2ccc([N+](=O)[O-])cc2S(=O)(=O)N2CCSCC2)c1 [Compound 117, 4-(2-(2,5-Dimethylphenoxy)-5-nitrophenylsulfonyl)thiomorpholine]
